The results in this text go back to ChEMBL document CHEMBL5465560, “Selectivity Literature for EUbOPEN Chemogenomic Library” (2024).

For test [1], the target named is T1, Inhibitor of nuclear factor kappa-B kinase subunit epsilon (Homo sapiens) (UniProt Q14164).
T1 sequence (whole entry): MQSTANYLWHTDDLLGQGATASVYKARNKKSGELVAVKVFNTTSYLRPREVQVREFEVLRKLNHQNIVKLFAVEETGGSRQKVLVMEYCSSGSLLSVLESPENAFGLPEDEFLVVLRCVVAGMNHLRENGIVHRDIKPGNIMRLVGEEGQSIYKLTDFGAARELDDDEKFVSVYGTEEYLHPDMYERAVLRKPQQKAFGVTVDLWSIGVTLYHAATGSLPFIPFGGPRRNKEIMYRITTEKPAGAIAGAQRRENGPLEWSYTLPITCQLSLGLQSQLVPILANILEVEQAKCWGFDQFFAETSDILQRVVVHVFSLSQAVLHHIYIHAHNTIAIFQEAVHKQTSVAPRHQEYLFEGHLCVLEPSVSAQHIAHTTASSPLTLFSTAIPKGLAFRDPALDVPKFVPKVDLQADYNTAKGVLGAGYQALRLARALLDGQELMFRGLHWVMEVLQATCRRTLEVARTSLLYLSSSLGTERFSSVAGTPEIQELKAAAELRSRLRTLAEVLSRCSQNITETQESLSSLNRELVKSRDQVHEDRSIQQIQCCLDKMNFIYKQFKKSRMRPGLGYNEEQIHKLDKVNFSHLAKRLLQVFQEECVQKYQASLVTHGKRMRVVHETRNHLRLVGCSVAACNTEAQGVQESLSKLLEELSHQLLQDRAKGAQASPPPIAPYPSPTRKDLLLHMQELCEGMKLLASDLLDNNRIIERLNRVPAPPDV
The note with it: at 1 µM.

In test [2] the target is Dual specificity tyrosine-phosphorylation-regulated kinase 1A (Homo sapiens, UniProt Q13627). Description: Selectivity interaction (ProQinase) EUB0000171b DYRK1A.
Test [3] addresses T2, Serine/threonine-protein kinase 3 (Homo sapiens) (UniProt Q13188).
T2 sequence (whole entry): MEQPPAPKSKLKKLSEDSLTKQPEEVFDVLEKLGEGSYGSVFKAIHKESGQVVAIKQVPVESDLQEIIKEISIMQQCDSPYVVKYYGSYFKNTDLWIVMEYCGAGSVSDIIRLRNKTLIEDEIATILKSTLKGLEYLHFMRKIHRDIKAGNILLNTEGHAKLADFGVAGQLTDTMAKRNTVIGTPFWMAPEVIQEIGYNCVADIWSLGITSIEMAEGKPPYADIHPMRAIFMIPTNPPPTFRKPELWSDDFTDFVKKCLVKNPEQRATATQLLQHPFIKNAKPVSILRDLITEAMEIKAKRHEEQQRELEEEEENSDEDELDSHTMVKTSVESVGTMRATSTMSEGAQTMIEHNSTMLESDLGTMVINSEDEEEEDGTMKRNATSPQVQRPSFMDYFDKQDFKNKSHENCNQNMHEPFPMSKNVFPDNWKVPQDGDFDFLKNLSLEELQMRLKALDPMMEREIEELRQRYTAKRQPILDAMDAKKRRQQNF
The conditions noted are these: at 10 µM.

Test [4] addresses T3, Serine/threonine-protein kinase Nek9 (Homo sapiens) (UniProt Q8TD19).
T3 sequence (whole entry): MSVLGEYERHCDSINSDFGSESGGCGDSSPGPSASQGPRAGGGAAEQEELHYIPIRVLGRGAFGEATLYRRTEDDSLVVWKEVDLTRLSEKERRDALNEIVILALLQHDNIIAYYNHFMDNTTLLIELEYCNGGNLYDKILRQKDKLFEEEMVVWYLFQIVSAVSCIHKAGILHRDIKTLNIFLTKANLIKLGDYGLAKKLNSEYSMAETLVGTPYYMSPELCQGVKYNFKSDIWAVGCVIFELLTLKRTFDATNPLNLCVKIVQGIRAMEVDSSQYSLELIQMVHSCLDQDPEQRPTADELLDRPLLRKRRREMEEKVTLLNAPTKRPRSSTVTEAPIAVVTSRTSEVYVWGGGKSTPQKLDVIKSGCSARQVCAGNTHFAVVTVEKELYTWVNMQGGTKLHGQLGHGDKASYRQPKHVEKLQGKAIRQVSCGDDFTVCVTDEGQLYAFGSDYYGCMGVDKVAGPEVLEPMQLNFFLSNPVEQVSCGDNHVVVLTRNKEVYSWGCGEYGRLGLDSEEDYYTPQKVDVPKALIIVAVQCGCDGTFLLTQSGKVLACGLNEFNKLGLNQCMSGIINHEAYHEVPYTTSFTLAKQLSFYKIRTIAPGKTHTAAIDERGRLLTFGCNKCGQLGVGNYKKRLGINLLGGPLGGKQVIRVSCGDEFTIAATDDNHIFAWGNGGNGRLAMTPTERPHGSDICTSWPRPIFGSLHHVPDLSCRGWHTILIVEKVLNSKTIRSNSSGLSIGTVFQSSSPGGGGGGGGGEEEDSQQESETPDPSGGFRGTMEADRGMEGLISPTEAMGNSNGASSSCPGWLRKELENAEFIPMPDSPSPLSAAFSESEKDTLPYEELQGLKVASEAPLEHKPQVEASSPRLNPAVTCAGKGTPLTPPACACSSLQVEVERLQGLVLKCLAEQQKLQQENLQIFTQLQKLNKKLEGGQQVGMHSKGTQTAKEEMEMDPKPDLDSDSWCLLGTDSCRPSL
Description: Selectivity interaction (KinomeScan (DiscoverX)) EUB0001079a NEK9. The note with it: at 1 µM.

For test [5], the target named is Phosphatidylinositol 4-phosphate 5-kinase type-1 gamma (Homo sapiens) (UniProt O60331). Kind of test: Selectivity interaction (KinomeScan (DiscoverX)) EUB0000045b PIP5K1C.
In test [6] the target is Tyrosine-protein kinase FRK (Homo sapiens) (UniProt P42685). The conditions noted are these: at 10 µM.
Tyrosine-protein kinase FRK (Homo sapiens), sequence (P42685 whole entry): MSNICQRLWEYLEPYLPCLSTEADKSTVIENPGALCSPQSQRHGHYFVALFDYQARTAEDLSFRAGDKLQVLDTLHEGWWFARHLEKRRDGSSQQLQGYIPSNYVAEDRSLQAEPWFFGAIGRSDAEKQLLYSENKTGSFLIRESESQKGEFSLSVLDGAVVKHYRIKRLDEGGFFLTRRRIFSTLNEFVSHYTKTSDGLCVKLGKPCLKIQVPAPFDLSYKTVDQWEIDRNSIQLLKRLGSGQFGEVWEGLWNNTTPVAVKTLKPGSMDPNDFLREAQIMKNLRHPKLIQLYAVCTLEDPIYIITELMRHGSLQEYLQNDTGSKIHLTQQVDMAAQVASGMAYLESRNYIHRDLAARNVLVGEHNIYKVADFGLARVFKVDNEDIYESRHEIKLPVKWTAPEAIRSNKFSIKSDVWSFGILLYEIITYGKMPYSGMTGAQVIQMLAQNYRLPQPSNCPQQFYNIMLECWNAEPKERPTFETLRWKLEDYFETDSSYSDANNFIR

Phosphatidylinositol 4-phosphate 5-kinase type-1 gamma (Homo sapiens), sequence (O60331 whole entry): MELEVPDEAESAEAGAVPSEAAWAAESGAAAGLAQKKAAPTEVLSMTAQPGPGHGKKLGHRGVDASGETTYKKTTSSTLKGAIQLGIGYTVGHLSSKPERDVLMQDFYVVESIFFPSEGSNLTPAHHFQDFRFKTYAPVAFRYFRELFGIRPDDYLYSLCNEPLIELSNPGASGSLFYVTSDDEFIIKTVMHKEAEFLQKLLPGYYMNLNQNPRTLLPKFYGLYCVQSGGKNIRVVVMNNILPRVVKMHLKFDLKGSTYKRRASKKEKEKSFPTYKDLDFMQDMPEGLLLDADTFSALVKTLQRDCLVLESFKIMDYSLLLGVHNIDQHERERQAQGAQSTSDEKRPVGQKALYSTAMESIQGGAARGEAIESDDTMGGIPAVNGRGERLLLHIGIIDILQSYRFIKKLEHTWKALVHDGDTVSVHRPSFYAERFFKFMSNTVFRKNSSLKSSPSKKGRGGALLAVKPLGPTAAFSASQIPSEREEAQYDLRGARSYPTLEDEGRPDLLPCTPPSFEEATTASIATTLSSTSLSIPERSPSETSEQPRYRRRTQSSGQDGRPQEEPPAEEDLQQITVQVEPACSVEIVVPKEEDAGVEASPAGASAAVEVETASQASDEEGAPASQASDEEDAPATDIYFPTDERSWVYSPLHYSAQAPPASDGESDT

`Cc1ccc(-c2ccc3c(ccc4sc5c(c43)NC[C@@H](C)NC5=O)n2)cn1` gave a % of inhibition in test [1] of 11%.

As to `C=CC(=O)Nc1cccc(C(=O)Nc2ccc(Nc3cc(-c4[nH]c(SC)nc4C)ccn3)cc2)c1`, the % of control amounted to 92% in test [2] (at 1 µM) and 70% in test [2] (at 5 µM). `CCN(CC)CCCCNc1ncc2cc(-c3cc(OC)cc(OC)c3)c(NC(=O)NC(C)(C)C)nc2n1` gave a % of control in test [3] of 100%. Take `Nc1cnc(N2CCc3cc(S(=O)(=O)Nc4c(F)cc(Cl)cc4F)cc(N4CCCC4=O)c32)nc1` [TP-020n]: in test [4], the % of control was 98%. Regarding `C=CC(=O)Nc1cc(-n2c(=O)ccc3cnc4ccc(-c5ccc(NS(C)(=O)=O)cc5)cc4c32)ccc1C`, the results for the % of control in test [5] (at 1 µM) and in test [5] (at 10 µM) were 89% and 29%, respectively. In turn, `COCC(=O)NC/C=C/c1ccc2ncnc(Nc3ccc(Oc4ccc(C)nc4)c(C)c3)c2c1` [CP-724714] registered a % of control in test [6] of 100%.
